According to publication PMC8600679, “Substituted Two- to Five-Ring Polycyclic Aromatic Compounds Are Potent Agonists of Atlantic Cod (Gadus morhua) Aryl Hydrocarbon Receptors Ahr1a and Ahr2a” (Environmental Science & Technology, 2021):
Where two headings read alike, the source gives them in different places.

What was measured:
Atlantic cod Ahr1a = Atlantic cod Ahr1a (Gadus morhua, UniProt A0A6H1Z2L5); assay: cell-based
Atlantic cod Ahr2a = biological target: T1, Atlantic cod Ahr2a (Gadus morhua, UniProt A0A6H1Z3G8); assay: cell-based
T1 sequence (A0A6H1Z3G8 1-1127): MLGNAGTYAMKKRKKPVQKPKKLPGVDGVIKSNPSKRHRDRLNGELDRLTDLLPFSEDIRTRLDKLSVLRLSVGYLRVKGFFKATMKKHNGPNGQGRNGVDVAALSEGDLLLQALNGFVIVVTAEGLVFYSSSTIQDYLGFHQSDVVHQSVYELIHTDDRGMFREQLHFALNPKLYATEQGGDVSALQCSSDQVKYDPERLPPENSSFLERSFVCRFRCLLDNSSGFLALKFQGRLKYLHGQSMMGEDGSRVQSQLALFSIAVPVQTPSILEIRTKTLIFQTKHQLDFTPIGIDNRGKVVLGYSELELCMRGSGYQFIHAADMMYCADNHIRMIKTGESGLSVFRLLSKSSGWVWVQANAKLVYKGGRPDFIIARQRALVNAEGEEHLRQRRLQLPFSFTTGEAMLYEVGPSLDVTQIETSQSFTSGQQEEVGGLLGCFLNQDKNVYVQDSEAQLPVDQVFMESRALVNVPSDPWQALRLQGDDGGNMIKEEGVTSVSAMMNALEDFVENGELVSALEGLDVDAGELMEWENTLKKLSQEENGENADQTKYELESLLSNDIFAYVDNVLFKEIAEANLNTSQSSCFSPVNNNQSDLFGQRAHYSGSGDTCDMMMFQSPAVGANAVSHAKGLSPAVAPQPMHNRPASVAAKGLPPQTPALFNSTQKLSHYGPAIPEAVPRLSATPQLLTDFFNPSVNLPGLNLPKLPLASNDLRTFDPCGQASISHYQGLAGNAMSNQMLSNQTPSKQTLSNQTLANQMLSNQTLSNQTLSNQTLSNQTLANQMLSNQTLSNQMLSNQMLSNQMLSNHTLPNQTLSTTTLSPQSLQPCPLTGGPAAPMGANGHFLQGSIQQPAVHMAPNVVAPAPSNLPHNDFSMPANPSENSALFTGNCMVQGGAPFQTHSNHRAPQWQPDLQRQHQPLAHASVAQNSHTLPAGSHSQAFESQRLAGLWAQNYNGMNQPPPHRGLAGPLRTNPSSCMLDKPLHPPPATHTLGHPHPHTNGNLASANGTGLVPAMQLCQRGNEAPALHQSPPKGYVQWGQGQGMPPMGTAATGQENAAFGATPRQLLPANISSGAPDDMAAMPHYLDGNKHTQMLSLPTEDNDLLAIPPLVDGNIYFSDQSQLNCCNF

rat AHR = test system: rat AHR; design: method as in PMID 17941736, PMID 25108069; details: H4IIE-luc reporter assay; cited from earlier work
[1] = EC25 of TCDD divided by concentration of PAC giving 25% of TCDD response
[2] = Welch's t-test, Supporting Table S6

Chain of Atlantic cod Ahr1a (A0A6H1Z2L5 1-957): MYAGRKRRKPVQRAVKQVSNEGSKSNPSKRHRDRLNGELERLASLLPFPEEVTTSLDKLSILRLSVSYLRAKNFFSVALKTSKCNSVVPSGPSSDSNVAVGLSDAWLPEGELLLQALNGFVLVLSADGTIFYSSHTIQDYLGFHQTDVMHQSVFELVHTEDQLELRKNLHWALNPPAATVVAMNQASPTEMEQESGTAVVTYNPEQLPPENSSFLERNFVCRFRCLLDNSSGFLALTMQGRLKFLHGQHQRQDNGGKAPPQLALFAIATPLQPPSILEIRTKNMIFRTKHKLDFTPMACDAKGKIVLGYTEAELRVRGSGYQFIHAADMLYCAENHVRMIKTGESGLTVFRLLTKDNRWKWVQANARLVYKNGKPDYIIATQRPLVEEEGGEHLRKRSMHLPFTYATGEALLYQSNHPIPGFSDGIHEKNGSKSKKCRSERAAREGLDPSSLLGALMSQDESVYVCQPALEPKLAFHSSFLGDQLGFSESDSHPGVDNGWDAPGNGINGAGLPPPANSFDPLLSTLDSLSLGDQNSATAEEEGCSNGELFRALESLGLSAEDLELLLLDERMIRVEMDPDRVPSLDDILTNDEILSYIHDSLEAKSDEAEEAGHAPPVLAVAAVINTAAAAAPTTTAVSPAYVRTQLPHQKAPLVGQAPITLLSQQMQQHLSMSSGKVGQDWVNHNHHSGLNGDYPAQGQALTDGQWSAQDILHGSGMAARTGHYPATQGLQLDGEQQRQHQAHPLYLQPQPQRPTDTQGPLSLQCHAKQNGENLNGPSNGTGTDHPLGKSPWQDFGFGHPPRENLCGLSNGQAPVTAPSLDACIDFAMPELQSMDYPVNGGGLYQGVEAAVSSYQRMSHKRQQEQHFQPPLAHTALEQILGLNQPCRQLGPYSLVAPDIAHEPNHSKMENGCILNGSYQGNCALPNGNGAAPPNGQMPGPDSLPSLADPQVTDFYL
Chain of Atlantic cod Ahr1a (A0A8C5CZZ9 1-645 partner): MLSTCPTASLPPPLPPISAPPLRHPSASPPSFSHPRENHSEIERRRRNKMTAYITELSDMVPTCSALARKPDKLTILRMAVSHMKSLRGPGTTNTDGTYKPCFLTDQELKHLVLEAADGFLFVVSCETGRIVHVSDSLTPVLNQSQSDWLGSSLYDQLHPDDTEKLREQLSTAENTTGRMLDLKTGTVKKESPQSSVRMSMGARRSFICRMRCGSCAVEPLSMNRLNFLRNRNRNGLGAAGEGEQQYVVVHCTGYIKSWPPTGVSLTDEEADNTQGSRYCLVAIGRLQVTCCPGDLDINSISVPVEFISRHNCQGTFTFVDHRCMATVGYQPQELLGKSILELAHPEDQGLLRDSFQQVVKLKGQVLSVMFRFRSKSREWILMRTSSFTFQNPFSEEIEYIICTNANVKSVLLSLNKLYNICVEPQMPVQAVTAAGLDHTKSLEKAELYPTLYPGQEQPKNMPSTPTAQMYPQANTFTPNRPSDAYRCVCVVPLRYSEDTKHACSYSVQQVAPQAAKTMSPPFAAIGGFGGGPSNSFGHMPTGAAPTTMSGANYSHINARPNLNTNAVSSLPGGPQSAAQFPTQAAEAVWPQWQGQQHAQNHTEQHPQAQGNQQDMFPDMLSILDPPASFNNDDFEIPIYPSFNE

Row | SMILES | EC50 (Atlantic cod Ahr1a; COS-7 cells, 24 h exposure, read-out: Ahr1a EC50) | Ahr1a REP25 (Atlantic cod Ahr1a; [1]) | Efficacy compared to TCDD with Ahr1a (Atlantic cod Ahr1a; [2]) | Activation of Ahr1a (agonist or not) (Atlantic cod Ahr1a; in vitro transactivation) | Emax (Atlantic cod Ahr1a; percent of maximum efficacy determined for TCDD, COS-7 cells, 24 h exposure, None = no agonistic response significantly different from solvent, read-out: Ahr1a Relative Emax (%)) | EC50 (Atlantic cod Ahr2a; COS-7 cells, 24 h exposure, read-out: Ahr2a EC50) | Ahr2a REP25 (Atlantic cod Ahr2a; [1]) | EC50 (Atlantic cod Ahr2a; Supplementary Table S5, read-out: Potency (EC50, nM) Ahr2a) | Efficacy compared to TCDD via Ahr2a (Atlantic cod Ahr2a; [2]) | Activation of Ahr2a (agonist or not) (Atlantic cod Ahr2a; in vitro transactivation) | Emax (Atlantic cod Ahr2a; percent of maximum efficacy determined for TCDD, COS-7 cells, 24 h exposure, None = no agonistic response significantly different from solvent, read-out: Ahr2a Relative Emax (%)) | melting point | EC50 (Atlantic cod Ahr1a; Ahr1a EC50 (nM), COS-7 cells, 24 h exposure) | Emax (Atlantic cod Ahr1a; COS-7, read-out: Ahr1a Relative Emax (%)) | EC50 (Atlantic cod Ahr2a; Ahr2a EC50 (nM), COS-7 cells, 24 h exposure) | Emax (Atlantic cod Ahr2a; COS-7, read-out: Ahr2a Relative Emax (%)) | EC50 (rat AHR)
1 | COc1cc2ccc3c4ccccc4ccc3c2cc1OC [2,3-DMOC, 2,3-Dimethoxychrysene] | 199 nM | 0.0083 | lower efficacies than TCDD | activated the two Ahrs | 77.5% | 359 nM | 0.00911 | 359 nM | lower efficacies in comparison to TCDD | activated the two Ahrs | 55% | 212 to 213.5 °C | – | – | – | – | –
2 | Clc1cc2c(cc1Cl)Oc1cc(Cl)c(Cl)cc1O2 [TCDD, 2,3,7,8-Tetrachlorodibenzo-p-dioxin, reference compound] | – | – | – | – | – | – | – | – | – | – | – | – | 1.7 nM | 99.7% | 6.2 nM | 99.4% | 0.008 to 0.018 nM
